The values below come from patent US11214803B2, “Modulators of YAP1 expression” (Ionis Pharmaceuticals, Inc., priority 2019, dated 2022).

Strand notation (5' to 3'): a small letter for the sugar, then the base; units joined by * are phosphorothioate-linked, units joined directly phosphodiester-linked; [ ] holds rarer units or linkages, { } end groups; capitals alone tell only the bases. e = 2'-O-(2-methoxyethyl) (MOE); k = constrained ethyl (cEt); [5mC] = 5-methylcytosine; d = 2'-deoxy (DNA)

One data set has as its system Yap1 mRNA. As to the kind of experiment: Antisense inhibition of human Yap1 in SNU-449 cells by modified oligonucleotides, single dose (Example 5, RTS36584). It is filed as cell-based. To be noted: Table 49; Yap1 mRNA level relative to untreated control; modified oligonucleotides targeting SEQ ID NO.: 1 and 2. Summed up:
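Values are % of untreated control: Yap1 mRNA by quantitative RT-PCR (RTS36584), normalized to RIBOGREEN total RNA. Oligonucleotides were dosed at 2,000 nM, free uptake, in SNU-449 cells, with roughly 48 h exposure before RNA isolation.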
As to “1198565 (antisense kT*kT*kA*d[5mC]*dA*dT*dT*dA*dG*dG*dA*dA*k[5mC]*kA*kA*eG) [Compound 1198565]”, the “YAP1 (% UT)” value is reported as 53 % UT.
Same read-out and setting: as for “1198566 (antisense kT*kT*kT*dT*dA*d[5mC]*dA*dT*dT*dA*dG*dG*kA*kA*k[5mC]*eA) [Compound 1198566]”, the figure is 83 % UT; as for “1198567 (antisense k[5mC]*kT*kT*dT*dT*dA*d[5mC]*dA*dT*dT*dA*dG*kG*kA*kA*e[5mC]) [Compound 1198567]”, 54 % UT.
Take “1198568 (antisense kA*k[5mC]*kT*dT*dT*dT*dA*d[5mC]*dA*dT*dT*dA*kG*kG*kA*eA) [Compound 1198568]”: the “YAP1 (% UT)” value is 31 % UT.
Still for that read-out and setting: the figure for “1198569 (antisense CACTTTTACATTAGGA; chemistry not fully specified) [Compound 1198569]” is 14 % UT.
The same measure, in the same setting: the figure for “1198570 (antisense kG*k[5mC]*kA*d[5mC]*dT*dT*dT*dT*dA*d[5mC]*dA*dT*kT*kA*kG*eG) [Compound 1198570]” is 15 % UT.
With “1198571 (antisense kA*kG*k[5mC]*dA*d[5mC]*dT*dT*dT*dT*dA*d[5mC]*dA*kT*kT*kA*eG) [Compound 1198571]”, the “YAP1 (% UT)” value is 32 % UT.
Same read-out and setting: as for “1198572 (antisense kA*kA*kG*d[5mC]*dA*d[5mC]*dT*dT*dT*dT*dA*d[5mC]*kA*kT*kT*eA) [Compound 1198572]”, the figure is 53 % UT.
As for “1198573 (antisense kT*kT*kA*dA*dG*d[5mC]*dA*d[5mC]*dT*dT*dT*dT*kA*k[5mC]*kA*eT) [Compound 1198573]”, the “YAP1 (% UT)” value stood at 76 % UT.
Still for that read-out and setting: as for “1198574 (antisense kG*kG*kA*dA*dG*dA*dT*d[5mC]*dT*dG*dA*dA*kA*k[5mC]*kT*e[5mC]) [Compound 1198574]”, the figure is 37 % UT.
The same measure, in the same setting: as for “1198575 (antisense kT*kT*kG*dG*dA*dA*dG*dA*dT*d[5mC]*dT*dG*kA*kA*kA*e[5mC]) [Compound 1198575]”, the figure is 94 % UT.
The same measure, in the same setting: as for “1198576 (antisense kT*kT*kT*dG*dG*dA*dA*dG*dA*dT*d[5mC]*dT*kG*kA*kA*eA) [Compound 1198576]”, the figure is 92 % UT.
As for “1198577 (antisense k[5mC]*kT*kT*dT*dG*dG*dA*dA*dG*dA*dT*d[5mC]*kT*kG*kA*eA) [Compound 1198577]”, the “YAP1 (% UT)” value came to 40 % UT.
The same measure, in the same setting: the figure for “1198578 (antisense GCTTTGGAAGATCTGA; chemistry not fully specified) [Compound 1198578]” is 18 % UT.
“1198579 (antisense kT*kG*k[5mC]*dT*dT*dT*dG*dG*dA*dA*dG*dA*kT*k[5mC]*kT*eG) [Compound 1198579]”: the “YAP1 (% UT)” value turned out to be 34 % UT.
“1198580 (antisense kG*kT*kG*d[5mC]*dT*dT*dT*dG*dG*dA*dA*dG*kA*kT*k[5mC]*eT) [Compound 1198580]”: the “YAP1 (% UT)” value was determined as 43 % UT.
Still for that read-out and setting: as for “1198581 (antisense kA*kG*kT*dG*d[5mC]*dT*dT*dT*dG*dG*dA*dA*kG*kA*kT*e[5mC]) [Compound 1198581]”, the figure is 42 % UT; as for “1198582 (antisense kA*kT*kA*dG*dT*dG*d[5mC]*dT*dT*dT*dG*dG*kA*kA*kG*eA) [Compound 1198582]”, 63 % UT.
On the same count and under the same terms, the figure for “1198583 (antisense kA*kG*kG*dA*dT*dG*d[5mC]*dA*dT*dG*dG*dT*kT*kT*kT*eT) [Compound 1198583]” is 27 % UT; for “1198584 (antisense TTAGGATGCATGGTTT; chemistry not fully specified) [Compound 1198584]” it is 37 % UT.

Still in this data set, the particulars now being: Table 50; Yap1 mRNA remaining as percent of untreated control (UT), SNU-449 cells, single dose.
As to “1198585 (antisense kT*kT*kT*dA*dG*dG*dA*dT*dG*d[5mC]*dA*dT*kG*kG*kT*eT) [Compound 1198585]”, the “YAP1 (% UT)” value was 22 % UT.
Same read-out and setting: the figure for “1198586 (antisense kA*kT*kT*dT*dA*dG*dG*dA*dT*dG*d[5mC]*dA*kT*kG*kG*eT) [Compound 1198586]” is 96 % UT; for “1198587 (antisense kG*kA*kT*dT*dT*dA*dG*dG*dA*dT*dG*d[5mC]*kA*kT*kG*eG) [Compound 1198587]” it is 41 % UT.
Consider “1198588 (antisense kA*kG*kA*dT*dT*dT*dA*dG*dG*dA*dT*dG*k[5mC]*kA*kT*eG) [Compound 1198588]”, for which the “YAP1 (% UT)” value was determined as 32 % UT.
On to “1198589 (antisense k[5mC]*kA*kG*dA*dT*dT*dT*dA*dG*dG*dA*dT*kG*k[5mC]*kA*eT) [Compound 1198589]”, for which the “YAP1 (% UT)” value worked out at 24 % UT.
Still for that read-out and setting: as for “1198590 (antisense kT*k[5mC]*kA*dG*dA*dT*dT*dT*dA*dG*dG*dA*kT*kG*k[5mC]*eA) [Compound 1198590]”, the figure is 46 % UT.
Still for that read-out and setting: the figure for “1198591 (antisense kA*kT*kT*d[5mC]*dA*dG*dA*dT*dT*dT*dA*dG*kG*kA*kT*eG) [Compound 1198591]” is 106 % UT; for “1198592 (antisense kA*kT*kA*dT*dG*dG*dT*dT*dT*dT*dG*dT*kG*kT*kG*eT) [Compound 1198592]” it is 50 % UT; for “1198593 (antisense kT*kT*kA*dT*dA*dT*dG*dG*dT*dT*dT*dT*kG*kT*kG*eT) [Compound 1198593]” it is 45 % UT.
Consider “1198594 (antisense k[5mC]*kT*kT*dA*dT*dA*dT*dG*dG*dT*dT*dT*kT*kG*kT*eG) [Compound 1198594]”, for which the “YAP1 (% UT)” value is listed as 23 % UT.
The same measure, in the same setting: the figure for “1198595 (antisense kT*k[5mC]*kT*dT*dA*dT*dA*dT*dG*dG*dT*dT*kT*kT*kG*eT) [Compound 1198595]” is 27 % UT; for “1198596 (antisense k[5mC]*kT*k[5mC]*dT*dT*dA*dT*dA*dT*dG*dG*dT*kT*kT*kT*eG) [Compound 1198596]” it is 16 % UT; for “1198597 (antisense kA*k[5mC]*kT*d[5mC]*dT*dT*dA*dT*dA*dT*dG*dG*kT*kT*kT*eT) [Compound 1198597]” it is 27 % UT.
“1198598 (antisense kA*kA*k[5mC]*dT*d[5mC]*dT*dT*dA*dT*dA*dT*dG*kG*kT*kT*eT) [Compound 1198598]”: the “YAP1 (% UT)” value is 76 % UT.
Still for that read-out and setting: the figure for “1198599 (antisense k[5mC]*kA*kA*d[5mC]*dT*d[5mC]*dT*dT*dA*dT*dA*dT*kG*kG*kT*eT) [Compound 1198599]” is 90 % UT.
The same measure, in the same setting: as for “1198600 (antisense kG*kA*k[5mC]*dA*dA*d[5mC]*dT*d[5mC]*dT*dT*dA*dT*kA*kT*kG*eG) [Compound 1198600]”, the figure is 72 % UT; as for “1198601 (antisense kA*kT*kT*dG*d[5mC]*dA*dA*dT*d[5mC]*dT*dG*dT*k[5mC]*kT*kG*eA) [Compound 1198601]”, 50 % UT; as for “1198602 (antisense kA*kT*kA*dT*dT*dG*d[5mC]*dA*dA*dT*d[5mC]*dT*kG*kT*k[5mC]*eT) [Compound 1198602]”, 29 % UT.
With “1198603 (antisense kA*kA*kT*dA*dT*dT*dG*d[5mC]*dA*dA*dT*d[5mC]*kT*kG*kT*e[5mC]) [Compound 1198603]”, the “YAP1 (% UT)” value came out at 51 % UT.
On the same count and under the same terms, the figure for “1198604 (antisense kT*kA*kA*dT*dA*dT*dT*dG*d[5mC]*dA*dA*dT*k[5mC]*kT*kG*eT) [Compound 1198604]” is 48 % UT; for “1198605 (antisense kG*kT*kA*dA*dT*dA*dT*dT*dG*d[5mC]*dA*dA*kT*k[5mC]*kT*eG) [Compound 1198605]” it is 7 % UT; for “1198606 (antisense kT*kG*kT*dA*dA*dT*dA*dT*dT*dG*d[5mC]*dA*kA*kT*k[5mC]*eT) [Compound 1198606]” it is 25 % UT.
For the substance “1198607 (antisense kA*kT*kG*dT*dA*dA*dT*dA*dT*dT*dG*d[5mC]*kA*kA*kT*e[5mC]) [Compound 1198607]”, the “YAP1 (% UT)” value amounted to 77 % UT.
With “1198608 (antisense kT*kA*kT*dG*dT*dA*dA*dT*dA*dT*dT*dG*k[5mC]*kA*kA*eT) [Compound 1198608]”, the “YAP1 (% UT)” value amounted to 83 % UT.
The same measure, in the same setting: as for “1198609 (antisense kT*kT*kT*dA*dT*dG*dT*dA*dA*dT*dA*dT*kT*kG*k[5mC]*eA) [Compound 1198609]”, the figure is 52 % UT; as for “1198610 (antisense kT*kG*kT*dA*dT*dG*dT*d[5mC]*dA*dG*dA*dA*kG*kA*kG*eT) [Compound 1198610]”, “TksGksTksAdsTdsGdsTds^mCdsAdsGds4 % UT”.
Turning to “1198611 (antisense kA*kG*kT*dG*dT*dA*dT*dG*dT*d[5mC]*dA*dG*kA*kA*kG*eA) [Compound 1198611]”, the “YAP1 (% UT)” value came out at 7 % UT.
Still for that read-out and setting: the figure for “1198612 (antisense kA*kA*kG*dT*dG*dT*dA*dT*dG*dT*d[5mC]*dA*kG*kA*kA*eG) [Compound 1198612]” is 5 % UT; for “1198613 (antisense kA*kA*kA*dG*dT*dG*dT*dA*dT*dG*dT*d[5mC]*kA*kG*kA*eA) [Compound 1198613]” it is 3 % UT.
On the same count and under the same terms, as for “1198614 (antisense kT*kA*kA*dA*dG*dT*dG*dT*dA*dT*dG*dT*k[5mC]*kA*kG*eA) [Compound 1198614]”, the figure is 4 % UT.
Turning to “1198615 (antisense kT*kT*kA*dA*dA*dG*dT*dG*dT*dA*dT*dG*kT*k[5mC]*kA*eG) [Compound 1198615]”, the “YAP1 (% UT)” value is 10 % UT.
On to “1198616 (antisense kT*kT*kT*dA*dA*dA*dG*dT*dG*dT*dA*dT*kG*kT*k[5mC]*eA) [Compound 1198616]”, for which the “YAP1 (% UT)” value was 16 % UT.
Turning to “1198617 (antisense k[5mC]*kT*kT*dT*dA*dA*dA*dG*dT*dG*dT*dA*kT*kG*kT*e[5mC]) [Compound 1198617]”, the “YAP1 (% UT)” value came out at 34 % UT.
